Here are results for 7 molecules from paper PMC9757072, “NrnA is a 5′-3′ exonuclease that processes short RNA substrates in vivo and in vitro” (Nucleic Acids Research, 2022).

The target in one series is T1, NrnABs (Bacillus subtilis, UniProt O34600, D156N/D80N).
T1 construct: gene nrnA
In words: DRaCALA.

A further series addresses T2, OrnEc (Escherichia coli, UniProt P0A784).
T2 sequence (P0A784 1-181): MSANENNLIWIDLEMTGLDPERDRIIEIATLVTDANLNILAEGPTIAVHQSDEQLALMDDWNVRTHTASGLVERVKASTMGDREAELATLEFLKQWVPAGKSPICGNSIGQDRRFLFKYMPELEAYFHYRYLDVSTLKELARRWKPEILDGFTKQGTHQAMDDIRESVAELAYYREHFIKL
Nature of the series: cleavage of […]'-32P RNA mixture, denaturing PAGE. Type of series: biochemical. As to conditions: 20 nM enzyme; GG is the 2-mer of the 2-7 and 10-mer mix; pH 8.0, 100 mM NaCl, Mg or Mn; labelled compound.

The target in another series is T3, GdpP(82–659)Bs (Bacillus subtilis, UniProt P37484).
T3 construct: cytoplasmic portion, residues 82-659; N-terminal 6xHis tag kept; expressed in E. coli
T3 sequence (P37484 82-659): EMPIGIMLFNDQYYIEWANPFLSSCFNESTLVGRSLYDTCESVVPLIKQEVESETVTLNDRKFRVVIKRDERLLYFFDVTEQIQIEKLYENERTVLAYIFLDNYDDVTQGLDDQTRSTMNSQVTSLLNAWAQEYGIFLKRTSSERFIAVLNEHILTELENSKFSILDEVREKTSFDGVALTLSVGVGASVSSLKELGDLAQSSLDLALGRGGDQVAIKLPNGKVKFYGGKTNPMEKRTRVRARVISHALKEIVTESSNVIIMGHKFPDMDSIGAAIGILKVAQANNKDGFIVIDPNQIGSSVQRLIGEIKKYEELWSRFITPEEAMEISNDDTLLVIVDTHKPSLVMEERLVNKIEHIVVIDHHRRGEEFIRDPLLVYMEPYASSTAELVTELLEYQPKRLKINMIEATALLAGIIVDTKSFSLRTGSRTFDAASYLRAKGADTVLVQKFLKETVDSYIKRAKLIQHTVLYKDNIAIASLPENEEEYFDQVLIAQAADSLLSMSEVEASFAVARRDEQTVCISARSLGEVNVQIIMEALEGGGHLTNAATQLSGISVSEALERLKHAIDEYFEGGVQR
Nature of the series: cleavage of […]-c-di-AMP, denaturing PAGE. Type of series: biochemical. The settings on record: 100 nM enzyme, 1 uM substrate; pH 8.0, 300 mM NaCl, 200 uM MnCl2, room temperature; labelled compound; positive control.

The target in a further series is CnpBMt (Mycobacterium tuberculosis, UniProt P71615). Nature of the series: cleavage of […]-c-di-AMP, denaturing PAGE. Type of series: biochemical. As to conditions: 100 nM enzyme, 1 uM substrate; pH 8.0, 300 mM NaCl, 200 uM MnCl2, room temperature; labelled compound.
Sequence of CnpBMt (P71615 whole entry): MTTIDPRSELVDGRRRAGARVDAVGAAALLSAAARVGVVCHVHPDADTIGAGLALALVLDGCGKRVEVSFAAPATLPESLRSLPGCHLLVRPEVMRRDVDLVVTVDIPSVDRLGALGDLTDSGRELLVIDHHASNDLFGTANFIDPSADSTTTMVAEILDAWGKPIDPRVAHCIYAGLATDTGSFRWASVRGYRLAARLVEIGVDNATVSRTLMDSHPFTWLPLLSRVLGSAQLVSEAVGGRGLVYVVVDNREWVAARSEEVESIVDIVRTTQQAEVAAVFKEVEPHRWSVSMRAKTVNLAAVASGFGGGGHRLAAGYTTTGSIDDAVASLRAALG
A further series addresses T4, CnpBMs (Mycolicibacterium smegmatis, UniProt A0QVM9).
T4 construct: gene MSMEG_2630
In words: cleavage of […]-c-di-AMP, denaturing PAGE. Type of series: biochemical. The settings on record: 100 nM enzyme, 1 uM substrate; pH 8.0, 300 mM NaCl, 200 uM MnCl2, room temperature; labelled compound.

Substrate in series [1]: Nc1ncnc2c1ncn2[C@@H]1O[C@H](COP(=O)(O)O[C@H]2[C@@H](O)[C@H](n3cnc4c(N)ncnc43)O[C@@H]2COP(=O)(O)O)[C@@H](O)[C@H]1O
Nature of the series: continuous PPDK/luciferase coupled assay of AMP release. Type of series: biochemical, Bacillus subtilis. The settings on record: 10 mM MgCl2, 0.5 mM MnCl2, pH 8.0, 25 C, value assigned to AA by printed order (AA or ACC), 5'-phosphate inferred from 2 AMP per AA.

Substrate in series [2]: Nc1ccn([C@@H]2O[C@H](COP(=O)(O)O[C@H]3[C@@H](O)[C@H](n4ccc(N)nc4=O)O[C@@H]3COP(=O)(O)O[C@H]3[C@@H](O)[C@H](n4cnc5c(N)ncnc54)O[C@@H]3COP(=O)(O)O)[C@@H](O)[C@H]2O)c(=O)n1
The series is described as above. Type of series: biochemical, Bacillus subtilis. As to conditions: 10 mM MgCl2, 0.5 mM MnCl2, pH 8.0, 25 C, value assigned to ACC by printed order (AA or ACC), 5'-phosphate inferred from AMP release.

By Kd is commonly meant the concentration at which binding is half-saturated. Higher therefore signals lower affinity. What is called Km is the concentration of substrate that gives half-maximal velocity.

T1 sequence (O34600 whole entry D80N/D156N): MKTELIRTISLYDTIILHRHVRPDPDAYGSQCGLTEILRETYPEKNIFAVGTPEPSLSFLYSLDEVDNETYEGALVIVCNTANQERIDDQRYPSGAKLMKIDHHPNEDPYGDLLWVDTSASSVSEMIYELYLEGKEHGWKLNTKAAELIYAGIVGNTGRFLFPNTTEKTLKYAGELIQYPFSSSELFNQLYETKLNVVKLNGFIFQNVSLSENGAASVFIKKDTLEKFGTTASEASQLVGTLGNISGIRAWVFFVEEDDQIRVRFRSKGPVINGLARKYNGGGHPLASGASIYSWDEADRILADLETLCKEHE
T4 sequence (A0QVM9 1-340): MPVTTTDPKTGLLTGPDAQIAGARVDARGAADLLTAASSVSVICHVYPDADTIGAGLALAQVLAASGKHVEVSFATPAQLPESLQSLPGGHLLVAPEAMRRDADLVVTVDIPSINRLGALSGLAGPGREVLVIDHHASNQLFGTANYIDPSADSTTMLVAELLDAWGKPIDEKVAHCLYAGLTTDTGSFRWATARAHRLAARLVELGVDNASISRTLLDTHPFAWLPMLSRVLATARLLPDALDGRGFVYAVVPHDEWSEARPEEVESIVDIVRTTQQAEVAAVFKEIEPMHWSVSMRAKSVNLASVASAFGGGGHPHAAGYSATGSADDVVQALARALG

As to `Nc1ncnc2c1ncn2[C@@H]1O[C@H](COP(=O)(O)O[C@H]2[C@@H](O)[C@H](n3cnc4c(N)ncnc43)O[C@@H]2COP(=O)(O)O)[C@@H](O)[C@H]1O` [AA], on NrnABs, the dissociation constant Kd turned out to be 450 ± 30 nM. `Nc1ccn([C@@H]2O[C@H](COP(=O)(O)O)[C@@H](OP(=O)(O)OC[C@H]3O[C@@H](n4cnc5c(N)ncnc54)[C@H](O)[C@@H]3O)[C@H]2O)c(=O)n1` [CA] displayed a Kd at NrnABs of 2270 ± 130 nM. With `Nc1nc2c(ncn2[C@@H]2O[C@H](COP(=O)(O)O)[C@@H](OP(=O)(O)OC[C@H]3O[C@@H](n4cnc5c(N)ncnc54)[C@H](O)[C@@H]3O)[C@H]2O)c(=O)[nH]1` [GA], on NrnABs, binding was characterised by a dissociation constant (Kd) of 360 ± 130 nM. On to `Nc1nc2c(ncn2[C@@H]2O[C@H](COP(=O)(O)O[C@H]3[C@@H](O)[C@H](n4cnc5c(=O)[nH]c(N)nc54)O[C@@H]3COP(=O)(O)O)[C@@H](O)[C@H]2O)c(=O)[nH]1` [GG], for which the Kd at NrnABs is 210 nM. For the same molecule, the “cleavage of 5'-32P RNA mixture, denaturing PAGE” value on OrnEc is “dinucleotides are rapidly processed, and only minimal trinucleotide processing was seen”. In the case of `Nc1ncnc2c1ncn2[C@@H]1O[C@H](COP(=O)(O)O[C@H]2[C@@H](O)[C@H](n3ccc(=O)[nH]c3=O)O[C@@H]2COP(=O)(O)O)[C@@H](O)[C@H]1O` [UA], the equilibrium dissociation constant (Kd) on NrnABs was determined as 1290 ± 180 nM. For `Nc1ncnc2c1ncn2[C@@H]1O[C@@H]2COP(=O)(O)O[C@H]3[C@@H](O)[C@H](n4cnc5c(N)ncnc54)O[C@@H]3COP(=O)(O)O[C@H]2[C@H]1O` [c-di-AMP], the “cleavage of 32P-c-di-AMP, denaturing PAGE” value is reported as “cytoplasmic portion of B. subtilis GdpP, which is known to hydrolyze c-di-AMP” at GdpP(82–659)Bs; “only CnpB demonstrated an ability to directly hydrolyze c-di-AMP to AMP” at CnpBMt; “All CnpB-like proteins exhibited robust hydrolysis of c-di-AMP” at CnpBMs.

B1: NrnABs (Bacillus subtilis subsp. subtilis str. 168) (protein)
chain: MKTELIRTISLYDTIILHRHVRPDPDAYGSQCGLTEILRETYPEKNIFAVGTPEPSLSFLYSLDEVDNETYEGALVIVCDTANQERIDDQRYPSGAKLMKIDHHPNEDPYGDLLWVDTSASSVSEMIYELYLEGKEHGWKLNTKAAELIYAGIVGDTGRFLFPNTTEKTLKYAGELIQYPFSSSELFNQLYETKLNVVKLNGFIFQNVSLSENGAASVFIKKDTLEKFGTTASEASQLVGTLGNISGIRAWVFFVEEDDQIRVRFRSKGPVINGLARKYNGGGHPLASGASIYSWDEADRILADLETLCKEHE
notes: full length; N-terminal 10xHis-SUMO tag cleaved by bdSENP1; expressed in E. coli T7 Express
For B1, the Michaelis-Menten constant (Km) was 90 µM in series [1] and 325 µM in series [2].
